Experimental data from the supplement of paper PMC10307832.

Experiments:
Assay in all cases: relative viability (nuclei count vs DMSO), 5 days (fraction); higher = more cells survive
[1] = compound: O=C(CCCCCCNC(=O)c1cnc(N(c2ccccc2)c2ccccc2)nc1)NO [Ricolinostat] + CC(=O)c1c(C)c2cnc(Nc3ccc(N4CCNCC4)cn3)nc2n(C2CCCC2)c1=O [Palbociclib] (partner 0.5 µM)
In short: (§1)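 Relative viability divides the nuclei count in treated wells by that in vehicle wells. Lung cancer cell lines were seeded in 1536-well plates, dosed by pin tool the next day, and fixed and stained after 5 days in one step with final 0.05% Triton X-100, 1% formaldehyde and 1 ug/ml Hoechst. Dosing was a single drug or a fixed anchor-drug dose plus five library-drug doses (not always all listed) in √10 steps, and values are medians of duplicate plates imaged at 4×.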

[2] = compound: O=C(CCCCCCNC(=O)c1cnc(N(c2ccccc2)c2ccccc2)nc1)NO [Ricolinostat] + CC(=O)Nc1cccc(-n2c(=O)n(C3CC3)c(=O)c3c(Nc4ccc(I)cc4F)n(C)c(=O)c(C)c32)c1 [Trametinib] (partner 0.02 µM)
In short: as §1

[3] = compound: C1=CC=C(C(=C1)C2=CC=C(C=C2)C3=CSC4=C3C(=C(C(=O)N4)C#N)O)O + CS(=O)(=O)CCNCc1ccc(-c2ccc3ncnc(Nc4ccc(OCc5cccc(F)c5)c(Cl)c4)c3c2)o1 [Lapatinib] (partner 2 µM)
In short: as §1

[4] = compound: O=C(CCCCCCNC(=O)c1cnc(N(c2ccccc2)c2ccccc2)nc1)NO [Ricolinostat] + C[C@@H](Oc1cc(-c2cnn(C3CCNCC3)c2)cnc1N)c1c(Cl)ccc(F)c1Cl [Crizotinib] (partner 1 µM)
In short: as §1

Row | Cell Line | relative viability ([1]; first compound 0.08 µM) | relative viability ([1]; first compound 0.253 µM) | relative viability ([1]; first compound 0.8 µM) | relative viability ([1]; first compound 2.53 µM) | relative viability ([2]; first compound 0.08 µM) | relative viability ([2]; first compound 0.253 µM) | relative viability ([2]; first compound 0.8 µM) | relative viability ([2]; first compound 2.53 µM) | relative viability ([3]; first compound 0.08 µM) | relative viability ([3]; first compound 0.253 µM) | relative viability ([3]; first compound 0.8 µM) | relative viability ([3]; first compound 2.53 µM) | relative viability ([3]; first compound 8 µM) | relative viability ([4]; first compound 0.08 µM) | relative viability ([4]; first compound 0.253 µM) | relative viability ([4]; first compound 0.8 µM) | relative viability ([4]; first compound 2.53 µM)
1 | LU99A | 0.43 | 0.399 | 0.396 | 0.355 | 0.555 | 0.559 | 0.475 | 0.599 | 0.97 | 1.09 | 1.13 | 1.12 | 0.955 | 0.581 | 0.604 | 0.38 | 0.409
2 | LXF-289 | 0.618 | 0.552 | 0.599 | 0.609 | 0.675 | 0.638 | 0.688 | 0.629 | 0.89 | 0.895 | 0.917 | 0.908 | 0.924 | 0.804 | 0.852 | 0.804 | 0.719
3 | NCI-H23 | 0.532 | 0.509 | 0.448 | 0.615 | 0.445 | 0.414 | 0.428 | 0.406 | 1.36 | 1.09 | 1.19 | 1.08 | 0.843 | 0.534 | 0.565 | 0.665 | 0.445
4 | NCI-H322M | 0.495 | 0.493 | 0.478 | 0.52 | 0.431 | 0.539 | 0.611 | 0.564 | 0.621 | 0.616 | 0.569 | 0.563 | 0.589 |  | 0.913 | 0.818 | 0.751
5 | NCI-H358 | 0.151 | 0.147 | 0.173 | 0.165 | 0.125 | 0.135 | 0.173 | 0.176 | 0.431 | 0.473 | 0.549 | 0.49 | 0.41 | 0.581 | 0.453 | 0.421 | 0.31
